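Each compound was tested at five concentrations against cells in 96-well plates for 48 hours. The concentration for 50% growth inhibition is given as GI50.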 Active and inactive are the calls of the source. Cut-off read from the data, not from the text of the source: active = GI50 up to about 1.1 µM and inactive = higher.
Columns and labels:
Assay in all cases: inhibition of tumour cell growth, NCI panel, 48 h
786-0 = tested on: 786-0
A549 = tested on: A549
ACHN = tested on: ACHN
CCRF-CEM = tested on: CCRF-CEM
EKVX = tested on: EKVX
HCC 2998 = tested on: HCC 2998
HL-60 = tested on: HL-60
HT-29 = tested on: HT-29
KM12 = tested on: KM12
Malme-3M = tested on: Malme-3M
NCI-H226 = tested on: NCI-H226
OVCAR-8 = tested on: OVCAR-8
RPMI-8226 = tested on: RPMI-8226
SF-268 = tested on: SF-268
SK-MEL-5 = tested on: SK-MEL-5
U-251 = tested on: U-251
MOLT-4 = tested on: MOLT-4
DU-145 = tested on: DU-145
NCI/ADR-RES = tested on: NCI/ADR-RES

Compound	GI50 (786-0)	GI50 (A549)	GI50 (ACHN)	GI50 (CCRF-CEM)	GI50 (EKVX)	GI50 (HCC 2998)	GI50 (HL-60)	GI50 (HT-29)	GI50 (KM12)	GI50 (Malme-3M)	GI50 (NCI-H226)	GI50 (OVCAR-8)	GI50 (RPMI-8226)	GI50 (SF-268)	GI50 (SK-MEL-5)	GI50 (U-251)	GI50 (MOLT-4)	GI50 (DU-145)	GI50 (NCI/ADR-RES)
C[N+](C)(C)C1CC([N+](C)(C)C)C2c3ccccc3C21 (stereo unspecified)	> 100 µM (inactive)	> 100 µM (inactive)	> 100 µM (inactive)	> 100 µM (inactive)	> 100 µM (inactive)	> 100 µM (inactive)	> 100 µM (inactive)	> 100 µM (inactive)	> 100 µM (inactive)	> 100 µM (inactive)	> 100 µM (inactive)	> 100 µM (inactive)	> 100 µM (inactive)	> 100 µM (inactive)	> 100 µM (inactive)	> 100 µM (inactive)	–	–	–
COc1ccccc1NC(=O)/C(=C/c1ccccc1)C(C)=O	35.1 µM (inactive)	38 µM (inactive)	41.5 µM (inactive)	29.6 µM (inactive)	45.4 µM (inactive)	36.1 µM (inactive)	23.6 µM (inactive)	32.3 µM (inactive)	36.9 µM (inactive)	27.7 µM (inactive)	37.1 µM (inactive)	37.4 µM (inactive)	35.5 µM (inactive)	38.4 µM (inactive)	22.7 µM (inactive)	4.47 µM (inactive)	30.1 µM (inactive)	–	–
COc1ccc(C(=O)C(c2ccc(OC)cc2)C2(O)C(=O)Nc3c(C)cc(Cl)cc32)cc1 (stereo unspecified)	> 100 µM (inactive)	> 100 µM (inactive)	> 100 µM (inactive)	10.3 µM (inactive)	> 100 µM (inactive)	> 100 µM (inactive)	17.1 µM (inactive)	63.5 µM (inactive)	> 100 µM (inactive)	> 100 µM (inactive)	76.6 µM (inactive)	92.7 µM (inactive)	14.4 µM (inactive)	82.8 µM (inactive)	–	45.2 µM (inactive)	14.1 µM (inactive)	–	–
CCOC(=O)CN1C(=O)NC(C)(c2ccccc2)C1=O (stereo unspecified)	> 100 µM (inactive)	> 100 µM (inactive)	> 100 µM (inactive)	> 100 µM (inactive)	> 100 µM (inactive)	> 100 µM (inactive)	–	> 100 µM (inactive)	> 100 µM (inactive)	–	–	> 100 µM (inactive)	> 100 µM (inactive)	> 100 µM (inactive)	> 100 µM (inactive)	> 100 µM (inactive)	> 100 µM (inactive)	> 100 µM (inactive)	> 100 µM (inactive)
O=C1C(=Cc2ccc(F)cc2)C(=O)c2ccccc21	> 100 µM (inactive)	> 100 µM (inactive)	> 100 µM (inactive)	41.2 µM (inactive)	> 100 µM (inactive)	> 100 µM (inactive)	30.5 µM (inactive)	> 100 µM (inactive)	> 100 µM (inactive)	> 100 µM (inactive)	> 100 µM (inactive)	> 100 µM (inactive)	49.8 µM (inactive)	> 100 µM (inactive)	> 100 µM (inactive)	> 100 µM (inactive)	42 µM (inactive)	–	–
OCC1OC(n2ccc3cnccc32)CC1O (stereo unspecified)	> 100 µM (inactive)	> 100 µM (inactive)	> 100 µM (inactive)	> 100 µM (inactive)	> 100 µM (inactive)	> 100 µM (inactive)	> 100 µM (inactive)	> 100 µM (inactive)	> 100 µM (inactive)	> 100 µM (inactive)	> 100 µM (inactive)	> 100 µM (inactive)	> 100 µM (inactive)	–	> 100 µM (inactive)	> 100 µM (inactive)	> 100 µM (inactive)	–	–
C/C(=N/O)c1ccc2c(c1)/C(=N/O)c1cc(/C(C)=N/O)ccc1-2	17.2 µM (inactive)	10.6 µM (inactive)	8.53 µM (inactive)	–	7.13 µM (inactive)	15.3 µM (inactive)	18.4 µM (inactive)	12.6 µM (inactive)	16.3 µM (inactive)	11 µM (inactive)	11.2 µM (inactive)	16.7 µM (inactive)	26.5 µM (inactive)	14.9 µM (inactive)	14.9 µM (inactive)	15.3 µM (inactive)	2.49 µM (inactive)	–	–
CCC12C=CCN(CCc3c([nH]c4ccccc34)/C=C\1)C2 (stereo unspecified)	> 100 µM (inactive)	> 100 µM (inactive)	> 100 µM (inactive)	> 100 µM (inactive)	> 100 µM (inactive)	> 100 µM (inactive)	> 100 µM (inactive)	> 100 µM (inactive)	> 100 µM (inactive)	> 100 µM (inactive)	> 100 µM (inactive)	–	> 100 µM (inactive)	> 100 µM (inactive)	> 100 µM (inactive)	> 100 µM (inactive)	> 100 µM (inactive)	–	–
CN(C)/N=N/c1cccc(C(N)=O)c1	> 100 µM (inactive)	> 100 µM (inactive)	> 100 µM (inactive)	> 100 µM (inactive)	> 100 µM (inactive)	> 100 µM (inactive)	> 100 µM (inactive)	> 100 µM (inactive)	> 100 µM (inactive)	> 100 µM (inactive)	> 100 µM (inactive)	> 100 µM (inactive)	> 100 µM (inactive)	> 100 µM (inactive)	> 100 µM (inactive)	> 100 µM (inactive)	> 100 µM (inactive)	–	–
O=c1c2ccccc2nc(-c2ccccc2Cl)n1NC1OC(CO)C(O)C(O)C1O (stereo unspecified)	> 100 µM (inactive)	> 100 µM (inactive)	> 100 µM (inactive)	> 100 µM (inactive)	> 100 µM (inactive)	> 100 µM (inactive)	> 100 µM (inactive)	> 100 µM (inactive)	> 100 µM (inactive)	> 100 µM (inactive)	> 100 µM (inactive)	> 100 µM (inactive)	> 100 µM (inactive)	> 100 µM (inactive)	> 100 µM (inactive)	> 100 µM (inactive)	> 100 µM (inactive)	–	–
CC(C)O/C=C1\C(=O)C2(SCCS2)[C@H]2CCCC[C@@H]12	48 µM (inactive)	37.9 µM (inactive)	39.3 µM (inactive)	25.5 µM (inactive)	–	66.4 µM (inactive)	24.2 µM (inactive)	–	35.6 µM (inactive)	32.7 µM (inactive)	84.1 µM (inactive)	36.6 µM (inactive)	25.4 µM (inactive)	39 µM (inactive)	25.2 µM (inactive)	40.5 µM (inactive)	16.2 µM (inactive)	–	–
Cc1nc2sccn2c1C(=O)NN	> 100 µM (inactive)	> 100 µM (inactive)	> 100 µM (inactive)	> 100 µM (inactive)	> 100 µM (inactive)	> 100 µM (inactive)	> 100 µM (inactive)	> 100 µM (inactive)	> 100 µM (inactive)	> 100 µM (inactive)	> 100 µM (inactive)	> 100 µM (inactive)	> 100 µM (inactive)	> 100 µM (inactive)	> 100 µM (inactive)	> 100 µM (inactive)	> 100 µM (inactive)	–	–
CCCCc1c2c(nc3c1CCc1cc4cc5c(nc4nc1-3)-c1nc3c(c(CCCC)c1CC5)CCC/C3=C\c1ccccc1)/C(=C/c1ccccc1)CCC2	> 100 µM (inactive)	> 100 µM (inactive)	> 100 µM (inactive)	> 100 µM (inactive)	> 100 µM (inactive)	> 100 µM (inactive)	> 100 µM (inactive)	> 100 µM (inactive)	> 100 µM (inactive)	> 100 µM (inactive)	> 100 µM (inactive)	> 100 µM (inactive)	> 100 µM (inactive)	> 100 µM (inactive)	–	> 100 µM (inactive)	> 100 µM (inactive)	–	–
CC1=CC(=C(c2ccc(N)c(C)c2)c2ccc(N)c(C)c2)C=CC1=N	3.11 µM (inactive)	3.6 µM (inactive)	8.45 µM (inactive)	2.86 µM (inactive)	4.89 µM (inactive)	3.44 µM (inactive)	3.72 µM (inactive)	3.64 µM (inactive)	3.24 µM (inactive)	2.91 µM (inactive)	3.93 µM (inactive)	1.37 µM (inactive)	2.18 µM (inactive)	0.499 µM (active)	2.07 µM (inactive)	0.411 µM (active)	3.65 µM (inactive)	–	–
O=C(O)CSc1nnc(-c2ccccc2O)[nH]1	> 100 µM (inactive)	> 100 µM (inactive)	> 100 µM (inactive)	> 100 µM (inactive)	> 100 µM (inactive)	> 100 µM (inactive)	> 100 µM (inactive)	> 100 µM (inactive)	–	> 100 µM (inactive)	> 100 µM (inactive)	> 100 µM (inactive)	> 100 µM (inactive)	> 100 µM (inactive)	> 100 µM (inactive)	> 100 µM (inactive)	> 100 µM (inactive)	–	–
NC(CCCCNC(=O)CNC(=O)OCc1ccccc1)C(=O)NC(CCCCNC(=O)CNC(=O)OCc1ccccc1)C(=O)NC(CCCCNC(=O)CNC(=O)OCc1ccccc1)C(=O)NC(CCCCNC(=O)CNC(=O)OCc1ccccc1)C(=O)NC(CCCCNC(=O)CNC(=O)OCc1ccccc1)C(=O)NC(CCCCNC(=O)CNC(=O)OCc1ccccc1)C(=O)O (stereo unspecified)	> 75 µM (inactive)	> 75 µM (inactive)	> 75 µM (inactive)	> 75 µM (inactive)	–	> 75 µM (inactive)	> 75 µM (inactive)	> 75 µM (inactive)	–	> 75 µM (inactive)	> 75 µM (inactive)	> 75 µM (inactive)	> 75 µM (inactive)	> 75 µM (inactive)	> 75 µM (inactive)	> 75 µM (inactive)	> 75 µM (inactive)	> 75 µM (inactive)	–

From ChEMBL document CHEMBL1201862, “PubChem BioAssay data set” (2004)
